Reference: patent publication US20260224738A1, “MICELLE NANOPARTICLES COMPRISING BIOPOLYMER-HEMIN COMPLEX, AND USE THEREOF” (GWANGJU INSTITUTE OF SCIENCE AND TECHNOLOGY, priority 2023, published 2026)

What was measured:
[1] = test system: AKI mouse model established using glycerol; assay: Histological analysis of kidneys of AKI mice (H&E, DHE, KIM-1, MAC387); type: in vivo, ICR mice
Procedure: (§1) All animal experiments were performed in accordance with the Gwangju Institute of Science and Technology Animal Care Committee guidelines (GIST-2021-095). Six-week-old ICR mice (30 g) were used, with free access to food and water. To establish an acute kidney injury (AKI) model, water was restricted for 18 hours. Next, 50% glycerol solution (8 mL/kg) was injected intramuscularly into both hind limbs of each mouse.
(§2) After establishing the AKI model, 10 mg/kg of hemin and biopolymer-hemin complex was injected intravenously. Twenty-four hours later, blood was collected for serum urea nitrogen (BUN) and creatinine analysis. Kidneys and other major organs (heart, liver, spleen, and lungs) were also collected for further histological analysis. 1-10. Histological analysis
The kidneys of each group were fixed with 4% formaldehyde, embedded in paraffin, and cut into 5 μm thick sections. H&E staining and TUNEL analysis of kidney sections were performed according to the manufacturer's protocol. For immunostaining of kidney injury molecule-1 (KIM-1) and MAC387, sections were treated with 100-fold diluted KIM-1 and MAC primary antibodies, and 200-fold diluted anti-rabbit IgG (Alexa Fluor 594) and anti-mouse IgG (Alexa Fluor 488) were each used as a secondary antibody. […] Images were analyzed quantitatively using ImageJ software. […]

[2] = test system: AKI mouse model established using glycerol; assay: Serum analysis (BUN, creatinine) of AKI mice; type: in vivo, ICR mice; settings: 10 mg/kg intravenous, 24 hours, compared to AKI mice
Procedure: as §1, §2

HK-2 cells = assay: Cell viability against ROS (200 μM hydrogen peroxide), Alamar Blue; type: cell-based, human
Procedure: HK-2 cells were treated with 200 μM hydrogen peroxide and various concentrations of the biopolymer-hemin complexes. After 24 hours of incubation, cell viability was evaluated using the Alamar Blue assay.
It was confirmed that the biopolymer-hemin complex removes ROS such as hydrogen peroxide and protects cells from oxidative stress (FIG. 4D). The ROS protective effect of the biopolymer-hemin complex was assayed in HK-2 cells with hydrogen peroxide. Various concentrations of hemin and biopolymer-hemin complexes with the same amount of hemin were added to cells treated with hydrogen peroxide (200 μM). The survival rate of cells was improved by increasing the concentration of the biopolymer-hemin complex or hemin.

## Hemin
[1]; AKI mice (FIG. 6D, 6F)
  kidney ROS levels (DHE staining): not effective in reducing ROS levels
[1]; AKI mice kidney
  macrophage signal (MAC387 immunostaining): strong macrophage signals
[2]
  serum BUN level: did not induce significant changes
  serum creatinine level: did not induce significant changes
HK-2 cells; HK-2, 200 μM hydrogen peroxide
  cytoprotective effect against hydrogen peroxide, overall: no significant difference observed between CS-H and hemin
HK-2 cells; hemin concentration 1 μM, 200 μM hydrogen peroxide
  cell viability against hydrogen peroxide: no protective effect at all
HK-2 cells; hemin concentration 5 and 25 μM, 200 μM hydrogen peroxide
  protective effect against hydrogen peroxide: improved protective effects
